Reference: ChEMBL document CHEMBL1201862, “PubChem BioAssay data set” (2004)
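Exposure lasted 48 hours, with cells grown in 96-well plates and compounds tested at five concentrations. GI50: concentration for 50% inhibition of growth.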 Calls of active or inactive are those of the source. Cut-off read from the data, not from the text of the source: active = GI50 up to about 1.1 µM and inactive = higher.

Experiments:
Experiment in all cases: NCI-60 cell line screen, 48 h
ACHN = test system: ACHN
CCRF-CEM = test system: CCRF-CEM
DU-145 = test system: DU-145
EKVX = test system: EKVX
HCC 2998 = test system: HCC 2998
HCT-15 = test system: HCT-15
HT-29 = test system: HT-29
M14 = test system: M14
MDA-MB-231 = test system: MDA-MB-231
MDA-N = test system: MDA-N
Malme-3M = test system: Malme-3M
NCI-H522 = test system: NCI-H522
OVCAR-3 = test system: OVCAR-3
PC-3 = test system: PC-3
RXF 393 = test system: RXF 393
SF-295 = test system: SF-295
SF-539 = test system: SF-539
SK-MEL-5 = test system: SK-MEL-5
TK-10 = test system: TK-10

| SMILES | GI50 (ACHN) | GI50 (CCRF-CEM) | GI50 (DU-145) | GI50 (EKVX) | GI50 (HCC 2998) | GI50 (HCT-15) [µM] | GI50 (HT-29) | GI50 (M14) | GI50 (MDA-MB-231) | GI50 (MDA-N) | GI50 (Malme-3M) | GI50 (NCI-H522) | GI50 (OVCAR-3) | GI50 (PC-3) | GI50 (RXF 393) | GI50 (SF-295) | GI50 (SF-539) | GI50 (SK-MEL-5) | GI50 (TK-10) |
| --- | --- | --- | --- | --- | --- | --- | --- | --- | --- | --- | --- | --- | --- | --- | --- | --- | --- | --- | --- |
| COC1(CC[C@H](C)COC2OC(CO)C(O)C(O)C2O)O[C@H]2C[C@H]3[C@@H]4CC=C5C[C@@H](OC6OC(CO)C(O)C(OC7OC(CO)C(O)C(O)C7O)C6OC6OC(C)C(O)C(O)C6O)CC[C@]5(C)[C@H]4CC[C@]3(C)[C@H]2[C@@H]1C (some centres undefined) | 13.3 µM (inactive) | 3.17 µM (inactive) | 2 µM (inactive) | 15.9 µM (inactive) | 4.86 µM (inactive) | 2.96 | 4.57 µM (inactive) | 2.84 µM (inactive) | 3.7 µM (inactive) | 8.81 µM (inactive) | 2.5 µM (inactive) | 2.94 µM (inactive) | 16.7 µM (inactive) | 4.3 µM (inactive) | 4.24 µM (inactive) | 3.3 µM (inactive) | 2.17 µM (inactive) | 5.27 µM (inactive) | 21.2 µM (inactive) |
| CN1CCOC1(C)c1ccccc1 (centres undefined) | > 100 µM (inactive) | > 100 µM (inactive) | > 100 µM (inactive) | > 100 µM (inactive) | > 100 µM (inactive) | > 100 | > 100 µM (inactive) | > 100 µM (inactive) | > 100 µM (inactive) | > 100 µM (inactive) | > 100 µM (inactive) | > 100 µM (inactive) | > 100 µM (inactive) | > 100 µM (inactive) | > 100 µM (inactive) | > 100 µM (inactive) | > 100 µM (inactive) | > 26.1 µM (inactive) | > 100 µM (inactive) |
| O=C(/C=C(O)/C(=C/C(=O)c1ccccc1)NN=C(c1ccccc1)c1ccccc1)c1ccccc1 | 38.3 µM (inactive) | 3.3 µM (inactive) | 45.2 µM (inactive) | > 100 µM (inactive) | 20.6 µM (inactive) | 23.5 | 85.7 µM (inactive) | 24.9 µM (inactive) | 49.7 µM (inactive) | 31.8 µM (inactive) | 25.2 µM (inactive) | 15.7 µM (inactive) | 18.3 µM (inactive) | 35.9 µM (inactive) | 41 µM (inactive) | 23.5 µM (inactive) | 37.5 µM (inactive) | 18.7 µM (inactive) | 28.4 µM (inactive) |
| CC(=O)N1NC(c2ccccc2)=NC(=O)C1c1cc(C)c(O)c(C)c1 (centres undefined) | 20.7 µM (inactive) | > 100 µM (inactive) | 22.7 µM (inactive) | 34 µM (inactive) | 20 µM (inactive) | 40 | 72.4 µM (inactive) | 71.9 µM (inactive) | 21.7 µM (inactive) | 54.6 µM (inactive) | 17.7 µM (inactive) | 17.8 µM (inactive) | 19.2 µM (inactive) | 27.8 µM (inactive) | 17.5 µM (inactive) | 19.1 µM (inactive) | 20.4 µM (inactive) | 20.3 µM (inactive) | 20.6 µM (inactive) |
| CC(NNC(=O)c1ccncc1)c1ccc(Cl)cc1Cl (centres undefined) | > 100 µM (inactive) | 49.4 µM (inactive) | > 100 µM (inactive) | > 100 µM (inactive) | > 100 µM (inactive) | 65.6 | > 100 µM (inactive) | > 100 µM (inactive) | > 100 µM (inactive) | > 100 µM (inactive) | > 100 µM (inactive) | > 100 µM (inactive) | > 100 µM (inactive) | 59.8 µM (inactive) | > 100 µM (inactive) | 72.9 µM (inactive) | > 100 µM (inactive) | 67.3 µM (inactive) | > 100 µM (inactive) |
| Cc1ccc(S(=O)(=O)N/N=C2\CC3CC4CCC2C4C3)cc1 (centres undefined) | > 100 µM (inactive) | > 100 µM (inactive) | > 100 µM (inactive) | > 100 µM (inactive) | > 100 µM (inactive) | > 100 | > 100 µM (inactive) | > 100 µM (inactive) | > 100 µM (inactive) | > 100 µM (inactive) | > 100 µM (inactive) | > 100 µM (inactive) | > 100 µM (inactive) | > 100 µM (inactive) | > 100 µM (inactive) | > 100 µM (inactive) | > 100 µM (inactive) | > 100 µM (inactive) | > 100 µM (inactive) |
| COC(=O)/C=C1\C(=O)N(C(C)=O)c2ccccc21 | 6.82 µM (inactive) | 2.97 µM (inactive) | 9.86 µM (inactive) | 12.3 µM (inactive) | 15.4 µM (inactive) | 6.19 | 5.28 µM (inactive) | 13.2 µM (inactive) | 7.6 µM (inactive) | 7.85 µM (inactive) | 13.5 µM (inactive) | 3.35 µM (inactive) | 7.67 µM (inactive) | 13.8 µM (inactive) | 6.04 µM (inactive) | 17 µM (inactive) | 4.79 µM (inactive) | 8.73 µM (inactive) | 7.14 µM (inactive) |
| CCN(c1cccc(NC(=S)Nc2ccccc2N(CC)c2cc(-c3ccccc3)no2)c1)c1cc(-c2ccccc2)no1 | > 100 µM (inactive) | > 100 µM (inactive) | > 100 µM (inactive) | > 100 µM (inactive) | > 100 µM (inactive) | > 100 | > 100 µM (inactive) | > 100 µM (inactive) | > 100 µM (inactive) | > 100 µM (inactive) | > 100 µM (inactive) | > 100 µM (inactive) | > 100 µM (inactive) | > 100 µM (inactive) | > 100 µM (inactive) | > 100 µM (inactive) | > 100 µM (inactive) | > 100 µM (inactive) | > 100 µM (inactive) |
| N=C(N)NC1C(O)C(O)C(O)C(NC(=N)N)C1O (centres undefined) | > 100 µM (inactive) | > 100 µM (inactive) | > 100 µM (inactive) | > 100 µM (inactive) | > 100 µM (inactive) | > 100 | > 100 µM (inactive) | > 100 µM (inactive) | > 100 µM (inactive) | > 100 µM (inactive) | > 100 µM (inactive) | > 100 µM (inactive) | > 100 µM (inactive) | > 100 µM (inactive) | > 100 µM (inactive) | > 100 µM (inactive) | > 100 µM (inactive) | > 100 µM (inactive) | > 100 µM (inactive) |
| CC(C)C(C=O)C(O)(C(F)(F)F)C(F)(F)F (centres undefined) | > 100 µM (inactive) | > 10 µM (inactive) | > 100 µM (inactive) | > 100 µM (inactive) | > 100 µM (inactive) | > 100 | > 100 µM (inactive) | > 100 µM (inactive) | > 100 µM (inactive) | > 100 µM (inactive) | > 100 µM (inactive) | > 100 µM (inactive) | > 100 µM (inactive) | > 100 µM (inactive) | > 100 µM (inactive) | > 100 µM (inactive) | > 100 µM (inactive) | > 100 µM (inactive) | > 100 µM (inactive) |
| FC(F)(F)C1(C(F)(F)F)O[Si]2(OC(C(F)(F)F)(C(F)(F)F)c3ccccc32)c2ccccc21 | 12 µM (inactive) | 10.5 µM (inactive) | 15.4 µM (inactive) | 15 µM (inactive) | 13.7 µM (inactive) | 17 | 7.62 µM (inactive) | 13.2 µM (inactive) | 8.24 µM (inactive) | 13.4 µM (inactive) | 9.46 µM (inactive) | 7.53 µM (inactive) | 16.5 µM (inactive) | 6.27 µM (inactive) | 13.6 µM (inactive) | 5.2 µM (inactive) | 10.2 µM (inactive) | 15.5 µM (inactive) | 17.4 µM (inactive) |
